Measurements: patent publication US10028992B2, “Methods of treating muscular dystrophy” (BOARD OF REGENTS OF THE NEVADA SYSTEM OF HIGHER EDUCATION …, priority 2012, dated 2018)

Tested on: α7 integrin promoter
Test: muscle cell-based assay: α7βgal+/− myoblasts/myotubes, LacZ reporter, β-galactosidase cleavage of FDG
Set-up: species or system mouse
Conditions: for AC50: Mus musculus, read-out: Fit Log AC50 (converted); for Fit HillSlope: curve fit; for Fit Zero Activity [%]: fitted activity at zero concentration; for Fit Curve Class: key not given; for Score: Table 12 Compound data, concentration-response curve fit; for Fit Infinite Activity [%]: fitted activity at infinite concentration
Description: An α7 integrin null mouse was produced in which exon 1 of the gene encoding the α7 integrin was replaced by the LacZ reporter. In these mice, all the transcriptional regulatory elements of the α7 integrin promoter were retained, allowing β-galactosidase to report expression of 7 integrin. A primary myoblast cell line (designated α7βgal^+/−) isolated from 10 day old α7^+/− pups were analyzed for the ability of β-galactosidase to report α7 integrin expression. α7βgal^+/− myoblasts were differentiated and subjected to X-gal staining and western analysis (FIGS. 1A and 1B).
The activity of the α7 integrin promoter was measured by β-galactosidase cleavage of the non-fluorescent compound fluorescein di-β-D-galactopyranoside (FDG) to fluorescein. This assay was used to screen compound libraries to identify molecules that up-regulate α7 integrin expression in muscle.
Also evaluated was the effect of various isoforms of laminin and the ligand for α7β1 integrin on integrin expression. Positive hits were subjected to dose-response analysis, western analysis and a myostatin counterscreen (a negative regulator of muscle growth).

[1] = Table 12, log of AC50, given with negative sign, unit of AC50 not given

| SMILES | AC50 [1] [µM] | Fit HillSlope (Table 12) | Fit Zero Activity [%] (Table 12) | Fit Curve Class (Table 12) | Score | Fit Infinite Activity [%] (Table 12) | Fit Log AC50 [1] |
| --- | --- | --- | --- | --- | --- | --- | --- |
| CC1CCCCC12NC(=O)N(CC(=O)OCc1cccc(F)c1)C2=O (stereo not shown) [Compound 67] | 10 | 1.4163 | 4.7344 | 2.1 | 44 |  |  |
| CNc1nnc(SCC(=O)c2cc(C)n(C3CC3)c2C)s1 [Compound 68] | 12.6 | 4.5045 | −17.9914 | 2.1 | 44 |  |  |
| CCCCNc1nnc(SCC(=O)c2c(N)n(CCC)c(=O)[nH]c2=O)s1 [Compound 69] | 3.98 | 1.3987 | −2.436 | 2.1 | 44 |  |  |
| C/C(=N\OCC(=O)OC(C)C(=O)Nc1ccc(C(N)=O)cc1)c1ccc2c(c1)OCO2 (stereo not shown) [Compound 70] | 4.47 | 1.2876 | −19.1057 | 2.1 | 44 |  |  |
| COc1cc(C(C(=O)NC2CCCCC2)N(C(=O)c2snc(C(N)=O)c2N)c2ccc(C)cc2)ccc1O (stereo not shown) [Compound 71] | 7.94 | 1.3443 | −2.1806 | 2.1 | 44 |  |  |
| CC1CCN(S(=O)(=O)c2ccc(S(=O)(=O)N3CCCC3)cc2)CC1 [Compound 72] | 8.91 | 2.3332 | −2.3089 | 2.1 | 44 |  |  |
| CCC(CC)C(=O)Nc1c(C(=O)N2CCN(c3ccccc3)CC2)oc2ccccc12 [Compound 73] | 12.6 | 4.095 | 16.3113 | 2.1 | 44 |  |  |
| COc1ccc(CCNC(=O)c2nn(C)c3c2CS(=O)(=O)c2ccccc2-3)cc1OC [Compound 74] | 4.47 | 1.8617 | −23.105 | 2.1 | 44 |  |  |
| COc1ccc(Nc2ncnc3ccc(Br)cc23)cc1OC [Compound 75] | 3.98 | 1.5579 | 26.9551 | 2.2 | 44 |  |  |
| CCOc1ccc2ccccc2c1C1NC(=O)N(C)C(C)=C1C(=O)OCCOC (stereo not shown) [Compound 76] | 6.31 | 1.3443 | −8.518 | 2.1 | 44 |  |  |
| Cc1ccc(NC(=O)NCc2nc3ccccc3n2C)cc1 [Compound 77] | 4.47 | 1.8617 | −34.2328 | 2.1 | 44 |  |  |
| COc1ccc(C(=O)ONC(=N)c2cccc(C)c2)cc1OC [Compound 78] | 10 | 1.7137 | 9.6566 | 2.1 | 44 |  |  |
| CNc1cc([N+](=O)[O-])ccc1OCc1ccccc1 [Compound 79] | 4.47 | 1.3437 | −0.3646 | 2.1 | 44 |  |  |
| COC(=O)Cc1c(O)ccn(Cc2ccc3c(c2)OCO3)c1=O [Compound 80] | 10 | 1.4163 | −6.484 | 2.1 | 44 |  |  |
| O=C(Nc1ccccc1F)c1ccc([N+](=O)[O-])s1 [Compound 81] | 12.6 | 4.5045 | 3.1931 | 2.1 | 44 |  |  |
| C/N=C(\S)N1CCC(NC(=O)C(Cc2ccc(F)cc2)NC(C)=O)CC1 (stereo not shown) [Compound 82] | 3.16 | 1.1341 | −6.4745 | 2.1 | 44 | 89.9991 |  |
| CCS(=O)(=O)N1CCCC(C(=O)c2ccc(OC)cc2C)C1 (stereo not shown) [Compound 83] | 11.2 | 2.0937 | −12.9886 | 2.1 | 44 |  |  |
| CCCS(=O)(=O)N1CCCC(C(=O)c2cccc(Cl)c2)C1 (stereo not shown) [Compound 84] | 6.31 | 1.2221 | −7.9639 | 2.1 | 44 |  |  |
| CC(C)(C)c1ccc(C(=O)OCC(=O)Nc2sc3c(c2C#N)CCC3)cc1 [Compound 85] | 5.01 | 1.8617 | 3.2331 | 2.1 | 44 |  |  |
| Cc1ccc(C2=C(CC(=O)O)C(=O)CC2)cc1 [Compound 86] | 4.47 | 0.8 | 0.4963 | 2.1 | 44 |  |  |
| CN(C)c1ccnc2sc(C(N)=O)c(N)c12 [Compound 87] |  | 2.1211 | 21.3502 | 2.2 | 44 |  |  |
| C[C@H]1CNC(=O)c2c(C(=O)Nc3ccc(CNC(=O)OC(C)(C)C)cc3)ncn21 [Compound 88] | 8.91 | 1.01 | 9.418 | 2.1 | 43 |  |  |
| CCCN(C(=O)c1ccc(S(=O)(=O)N2CCCC2)cc1)C1CCS(=O)(=O)C1 (stereo not shown) [Compound 89] | 5.01 | 1.6924 | −10.8957 | 2.2 | 43 |  |  |
| CN(CC(=O)Nc1cccc(F)c1)C(=O)c1ccc(-c2ccc(Cl)cc2)o1 [Compound 90] | 11.2 | 4.5045 | 5.7331 | 2.1 | 43 |  |  |
| COc1ccc(C(=O)N/C(=C/c2cccnc2)C(=O)N2CCN(C)CC2)cc1OC [Compound 92] | 4.47 | 1.6259 | 1.7602 | 2.2 | 43 |  |  |
| COc1cccc(C(=O)NCC(=O)N2CCC3(CC2)NCCc2[nH]cnc23)c1 [Compound 93] | 11.2 | 1.7529 | −3.6365 | 2.1 | 43 |  |  |
| COc1ccc(-c2csc3ncnc(N4CCN(c5ccccc5[N+](=O)[O-])CC4)c23)cc1 [Compound 94] |  | 4.9549 | 9.6823 | 2.1 | 43 | 138.031 | −5 |
| O=C(COc1cc2oc(=O)c3c(c2cc1Cl)CCCC3)NC[C@H]1CC[C@H](C(=O)O)CC1 [Compound 95] | 7.08 | 1.01 | −14.8966 | 2.2 | 43 |  |  |
| COCCn1c(=N)c(S(=O)(=O)c2ccc(Br)cc2)cc2c(=O)n3ccccc3nc21 [Compound 96] | 4.47 | 1.9887 | −8.0822 | 2.2 | 43 |  |  |
| CN(Cc1c(C(=O)N/N=C/c2cccc(F)c2)nnn1-c1nonc1N)c1ccccc1 [Compound 97] | 5.62 | 3.132 | 1.2108 | 2.2 | 43 |  |  |
